# How the values were obtained:
# [1] = biological target: T1, Human adenosine A2A receptor (Homo sapiens, UniProt P29274); experiment: Human adenosine A2A receptor calcium flux assay; assay type: cell-based; conditions: A2A stable CHO cell strain, antagonist mode against agonist NECA at EC80, FLIPR Fluo-4
# T1 construct: host or cells: CHO
# Protocol: Human adenosine A2A receptor calcium flux assay
# A2A stable cell strain was constructed by Shanghai WuXi PharmaTech, and the host cell was CHO.
# Fluo-4 Direct Kit (Invitrogen, Cat. No. F10471). After the fluorescent detection reagent (specifically binding to calcium ions and causing an increase in fluorescence signal) in the kit was incubated with the cells for a suitable period of time, the compound was added to stimulate the cells to cause changes in intracellular calcium flux, thereby causing changes in the fluorescent signal, which can reflect the strength of the agonistic or inhibitory activity of the compound.
# F12+10% fetal bovine serum+geneticin 300 ug/ml+blasticidin 2 ug/ml Compound dilution buffer:
# Hanks Balanced Salt Buffer (Invitrogen)+20 mM HEPES, configured before each use
# The test compounds were dissolved in DMSO to prepare 10 mM stock solutions. The test compounds were diluted to 0.2 mM with DMSO, and the reference compound CGS-15943 was diluted to 0.015 mM with DMSO. Next, 10 points of three-fold serial dilutions were made with ECHO. 900 nl was transferred to the compound plate (Greiner-781280), and 30 ul of compound dilution buffer was added. The final starting concentration of the test compounds was 1 uM and CGS-15943 was 0.075 uM.
# Cryopreserved A2A cells were resuscitated, and then resuspended in culture medium to 1×10^6 cells/ml. The suspension was seeded into 384-well polylysine-coated cell plates (Greiner-781946) at 20 μl/well and incubated overnight in a 5% CO2 incubator at 37° C.
# The cell plate prepared the day before was taken out from the incubator, and 20 ul of 2× Fluo-4 Direct™ buffer was added to each well. The plate was incubated for 50 minutes in a 5% CO2 incubator at 37° C. and allowed to stand at room temperature for 10 minutes.
# Dilution of agonist NECA: 10 points of three-fold serial dilutions were made with Echo for NECA from a starting concentration of 0.15 mM. 900 nL was then transferred to the corresponding compound plate; and then 30 μl of compound dilution buffer was added to the corresponding compound plate. The final starting concentration was 750 nM.
# FLIPR instrument software was run. According to the programmed procedure, 10 ul of compound dilution buffer was added to the cell plate and the fluorescence signal was read. 10 ul of the agonist reference compound at the indicated concentration was then added to the cell plate and the fluorescent signal was read. After reading, the data was exported by the “Max-Min”, “Read 90 to Maximum allowed” method in the software, and the EC80 of the A2A cell line was calculated. The agonist was prepared at a concentration of 6× EC80. A 6× EC80 concentration of a reference compound agonist of the corresponding cells was prepared with a buffer solution, and added at 30 ul/well to the corresponding compound plate for use.
# FLIPR instrument software was run. According to the programmed procedure, 10 μl of the test compounds and reference compound at an indicated concentration was added to the cell plate and the fluorescence signal was read. 10 ul of the reference compound agonist at a concentration of 6× EC80 was then added to the cell plate and the fluorescent signal was read. For the agonist detection of the compounds, the data was exported by the “Max-Min”, “Read 1 to 90” method in the software. For the antagonist detection of the compound, the data was exported by the “Max-Min”, “Read 90 to Maximum allowed” method in the software. Data were analyzed by GraphPad Prism 5.0 and the IC50 values of the test compounds were calculated.
# [2] = Pharmacokinetics in female Balb/c mice; assay type: in vivo; conditions: mouse, plasma, single intravenous injection / single oral administration; for bioavailability: read-out: Bioavailability F; for AUC: read-out: Concentration integral AUC; for half-life: read-out: Half-life T1/2 (converted)
# Protocol: Objective: To test the pharmacokinetics of compounds in female Balb/c mice in vivo
# Balb/c mice (female, 15-30 g, 7-9 weeks old, Shanghai Lingchang)
# The pharmacokinetics profile of the compounds in rodent after intravenous injection and oral administrations was tested using a standard protocol. In the assay, the candidate compound was formulated into a clear solution and administrated to the mice through a single intravenous injection, and formulated into a uniform suspension and administrated to the mice through a single oral administration. […] The whole blood samples were collected within 24 hours, centrifuged at 3000 g at 4° C. for 15 minutes, and plasma samples were obtained by separating the supernatant. 20 times volume of acetonitrile solution containing an internal standard was added to precipitate proteins. After centrifugation, the supernatant was collected, to which an equal volume of water was added, and further centrifuged to collect the supernatant. The LC-MS/MS method was used to quantitatively analyze the plasma concentration, and the pharmacokinetics parameters, such as peak concentration, peak time, clearance rate, half-life, area under the curve, and bioavailability were calculated.
# T1 sequence (P29274 whole entry): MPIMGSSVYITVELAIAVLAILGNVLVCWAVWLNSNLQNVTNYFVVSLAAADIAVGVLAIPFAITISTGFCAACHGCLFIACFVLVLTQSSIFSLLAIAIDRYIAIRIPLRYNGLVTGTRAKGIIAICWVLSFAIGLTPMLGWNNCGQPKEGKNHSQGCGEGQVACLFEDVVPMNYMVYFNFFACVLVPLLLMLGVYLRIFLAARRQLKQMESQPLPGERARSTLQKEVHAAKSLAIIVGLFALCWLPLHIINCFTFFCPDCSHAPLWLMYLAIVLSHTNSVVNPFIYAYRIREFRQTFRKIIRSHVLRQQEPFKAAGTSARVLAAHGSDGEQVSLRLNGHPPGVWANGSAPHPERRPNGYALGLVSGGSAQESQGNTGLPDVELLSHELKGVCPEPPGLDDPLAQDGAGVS
Compound,IC50 [1] [nM],other results
Cc1cc(-c2c(-c3ccccc3)nc(N)n3nc(C(F)(F)F)nc23)cc(C(F)(F)F)n1 [Example C-1],1.65,clearance [2]: 11.7 mL/min/kg; bioavailability [2]: 40.5%; AUC [2]: 13.2 µM·h; half-life [2]: 3.95 h
Cc1cc(-c2c(-c3cccc(F)c3)nc(N)n3ncnc23)cc(C(F)(F)F)n1 [Example A-2],0.38,clearance [2]: 44.9 mL/min/kg; bioavailability [2]: 62.1%; AUC [2]: 5.93 µM·h; half-life [2]: 0.8 h
Cc1cc(-c2c(-c3ccc(F)cc3)nc(N)n3nc(C(F)(F)F)nc23)cc(C)n1 [Example C-57],4.49,clearance [2]: 3.94 mL/min/kg; bioavailability [2]: 69.3%; AUC [2]: 71.7 µM·h; half-life [2]: 3.2 h
Cc1cc(-c2c(-c3ccc(F)cc3)nc(N)n3nc(C(F)(F)F)nc23)cc(Cl)n1 [Example C-41],4.99,clearance [2]: 5.53 mL/min/kg; bioavailability [2]: 41.2%; AUC [2]: 25.1 µM·h; half-life [2]: 8.04 h
Cc1cc(-c2c(-c3ccccc3)nc(N)n3nc(C(F)(F)F)nc23)cc(C)n1 [Example C-2],2.97,clearance [2]: 8.76 mL/min/kg; bioavailability [2]: 50.4%; AUC [2]: 24.9 µM·h; half-life [2]: 2 h
Cc1ccc(-c2nc(N)n3nc(C(F)(F)F)nc3c2-c2ccc3[nH]nnc3c2)o1 [Example C-48],11.3,
Nc1nc(-c2ccccc2)c(-c2ccc3c(c2)OCO3)c2ncnn12 [Example B-9],48,
Cc1cc(-c2c(-c3ccc(F)cc3)nc(N)n3nc(CO[C@H]4CCOC4)nc23)cc(Cl)n1 [Example C-70],0.59,
Cc1cc(-c2c(-c3ccc(F)cc3)nc(N)n3nc(C#N)nc23)cc(C(F)(F)F)n1 [Example C-76],5.61,
Cc1cc(-c2c(-c3ccc(O)cc3)nc(N)n3ncnc23)cc(C(F)(F)F)n1 [Example A-10],0.88,
CCc1nc2c(-c3cc(C)nc(C)c3)c(-c3ccccc3)nc(N)n2n1 [Example C-8],0.45,
Cc1cc(-c2c(-c3ccccc3)nc(N)n3nc(C(=O)NCc4ccc(F)cc4F)nc23)cc(C)n1 [Example C-18],2.39,
Cc1cc(-c2c(-c3ccc(F)cc3)nc(N)n3nc(C(C)(C)O)nc23)cc(Cl)n1 [Example C-78],0.77,
COc1cc(-c2c(-c3ccccc3)nc(N)n3ncnc23)ccn1 [Example B-27],0.28,
CCc1nc2c(-c3cc(C)nc(C(F)(F)F)c3)c(-c3ccc(F)cc3F)nc(N)n2n1 [Example C-36],7.92,
Cc1cc(-c2c(-c3ccc(F)cc3F)nc(N)n3ncnc23)cc(C(F)(F)F)n1 [Example A-25],1.14,
Cc1cc(-c2c(-c3ccncc3)nc(N)n3ncnc23)cc(C(F)(F)F)n1 [Example A-11],3.87,
COc1ccc(-c2nc(N)n3ncnc3c2-c2cc(C)nc(C(F)(F)F)c2)cc1 [Example A-6],1.04,
CCc1nc2c(-c3ccc4nn[nH]c4c3)c(-c3ccccc3F)nc(N)n2n1 [Example C-37],4.68,
Cc1cc(-c2c(-c3ccccc3)nc(N)n3nc(C)nc23)cc(C(F)(F)F)n1 [Example C-5],0.53,
Cc1cc(-c2c(-c3ccn(C)n3)nc(N)n3ncnc23)cc(C(F)(F)F)n1 [Example A-21],0.9,
Cc1cc(-c2c(-c3ccccc3F)nc(N)n3ncnc23)cc(C(F)(F)F)n1 [Example A-17],1.3,
COc1ccccc1Cc1nc2c(-c3cc(C)nc(C)c3)c(-c3ccccc3)nc(N)n2n1 [Example C-16],1.77,
CCc1nc2c(-c3cc(C)nc(C(F)(F)F)c3)c(-c3ccccc3F)nc(N)n2n1 [Example C-35],4.13,
Nc1nc(-c2ccccc2)c(-c2ccc3[nH]nnc3c2)c2nc(CO)nn12 [Example C-24],0.95,
Cc1cc(-c2c(-c3ccc(C)o3)nc(N)n3nc(CO)nc23)cc(C(F)(F)F)n1 [Example C-66],0.79,

Compound,IC50 [1] [nM],other results
Cc1cc(-c2c(-c3ccccc3Cl)nc(N)n3ncnc23)cc(C)n1 [Example A-28],37.4,
Nc1nc(-c2ccccc2)c(-c2ccc3[nH]cnc3c2)c2ncnn12 [Example B-8],0.44,
CC1C=C(c2c(-c3ccccc3)nc(N)n3ncnc23)CC(C)O1 (stereo not drawn) [Example B-24],1.18,
Nc1nc(-c2ccccc2)c(-c2ccc3[nH]nnc3c2)c2nc(C(F)(F)F)nn12 [Example C-29],1.5,
Cc1cc(-c2c(-c3ccccc3)nc(N)n3nc(CC4CC4)nc23)cc(C(F)(F)F)n1 [Example C-17],10.4,
Nc1nc(-c2ccccc2)c(-c2ccc3[nH]nnc3c2)c2ncnn12 [Example B-33],0.12,
Nc1nc(-c2ccc(F)cc2F)c(-c2ccc3[nH]nnc3c2)c2nc(C(F)(F)F)nn12 [Example C-34],73.8,
CCc1nc2c(-c3ccc4nn[nH]c4c3)c(-c3ccccc3OC)nc(N)n2n1 [Example C-32],38.9,
COc1ccccc1-c1nc(N)n2nc(C(F)(F)F)nc2c1-c1cc(C)nc(C(F)(F)F)c1 [Example C-31],14.1,
Nc1nc(-c2ccccc2)c(-c2ccc(O)c(Cl)c2)c2ncnn12 [Example B-4],0.14,
Cc1cc(-c2c(-c3ccn(C)n3)nc(N)n3nc(C(F)(F)F)nc23)cc(C(F)(F)F)n1 [Example C-63],7.22,
CCc1cc(-c2c(-c3ccccc3)nc(N)n3ncnc23)cc(C(F)(F)F)n1 [Example B-32],2.83,
Cc1cc(-c2c(-c3ccccn3)nc(N)n3ncnc23)cc(C(F)(F)F)n1 [Example A-7],5.83,
CC(C)(O)c1nc2c(-c3cc(Cl)nc(C(F)(F)F)c3)c(-c3ccc(F)cc3)nc(N)n2n1 [Example C-77],6.84,
COc1cc(F)ccc1-c1nc(N)n2ncnc2c1-c1cc(C)nc(C)c1 [Example A-24],4.9,
COc1cc(-c2c(-c3ccccc3)nc(N)n3ncnc23)cc(C)n1 [Example B-29],0.11,
COc1cc(F)ccc1-c1nc(N)n2nc(C)nc2c1-c1cc(C)nc(C(F)(F)F)c1 [Example C-39],10.9,
Cc1cc(-c2c(-c3ccn(C)n3)nc(N)n3nc(C)nc23)cc(C(F)(F)F)n1 [Example C-64],0.36,
Nc1nc(-c2ccccc2)c(-c2ccc3c(c2)CC(=O)N3)c2ncnn12 [Example B-20],71.3,
Nc1nc(-c2ccccc2)c(-c2cc(C3CC3)nc(C(F)(F)F)c2)c2ncnn12 [Example B-23],50.5,
Cc1cc(-c2c(-c3ccccc3)nc(N)n3nc(CC4CC4)nc23)cc(C)n1 [Example C-9],1.4,
Cc1cc(-c2c(-c3ccccc3F)nc(N)n3nc(CO)nc23)cc(C(F)(F)F)n1 [Example C-52],1.75,
Cc1cc(-c2c(-c3cccnc3)nc(N)n3ncnc23)cc(C(F)(F)F)n1 [Example A-12],11.4,
Cc1cc(-c2c(-c3ccc(F)cc3)nc(N)n3nc(CO)nc23)cc(Cl)n1 [Example C-44],0.67,
COCCOCc1nc2c(-c3cc(C)nc(C(F)(F)F)c3)c(-c3ccc(F)cc3)nc(N)n2n1 [Example C-68],0.64,
Cc1cc(-c2c(-c3ccccc3)nc(N)n3nc(C(=O)O)nc23)cc(C(F)(F)F)n1 [Example C-80],1.82,

# From patent US11117899B2, “[1,2,4]triazolo[1,5-c]pyrimidine derivative as A2A receptor inhibitor” (MEDSHINE DISCOVERY INC., priority 2017, dated 2021)
